Where two headings read alike, the source gives them in different places. No end group written: not given here.
Experiments:
lung cancer LC319 cells [1] = test: Dominant-negative peptide assay, MTT, LC319 cells; type: cell-based, human; details: peptide 10, 15 or 20 microM for 3 days
Text: (§1) Twenty-amino-acid sequence derived from minimized TSC1-binding domain in TBC1D7 (codons 112-171; see FIG. 5B) was covalently linked at its N-terminus to a membrane transducing 11 poly-arginine sequence (11R) as described elsewhere (Hayama S, Daigo Y, Kato T, et al. Cancer Res 2006; 66:10339-48, Hayama S, Daigo Y, Yamabuki T, et al. Cancer Res 2007; 67:4113-22). Three dominant-negative peptides were synthesized covering the codons 112-171 region: 11R-TBC112-131, RRRRRRRRRRR-GGG-[…] (SEQ ID NO.:23); 11R-TBC132-151, RRRRRRRRRRR-GGG-[…] (SEQ ID NO.:24); 11R-TBC152-171 RRRRRRRRRRR-GGG-[…] (SEQ ID NO.:25). Peptides were purified by preparative reverse-phase high-performance liquid chromatography to make >95% purity. […] The viability of cells was evaluated by MTT assay at 3 days after the treatment.

[2] = system: normal human lung fibroblast-derived CCD19Lu cells; type: cell-based; details: CCD19Lu cells in which TBC1D7 expression was hardly detectable, peptide 10, 15 or 20 microM for 3 days
Text: as §1

TBC1D7 = test: RNA interference assay: knockdown of TBC1D7 expression, semiquantitative RT-PCR; type: cell-based, human; details: LC319 and A549 cells; siRNA duplexes 100 nM transfected; versus control siRNAs (si-EGFP, si-LUC)
Description: Total RNA was extracted from cultured cells and clinical tissues using Trizol reagent (Life Technologies, Inc.) according to the manufacturer's protocol. Extracted RNAs were treated with DNase I (Nippon Gene) and reversely-transcribed using oligo (dT) primer and SuperScript II reverse transcriptase (Invitrogen). […]
(§2) Small interfering RNA (siRNA) duplexes (Dharmacon, Inc.) (100 nM) were transfected into a NSCLC cell line, A549 and esophageal cancer cell line, TE9, using 24 of Lipofectamine 2000 (Invitrogen) following the manufacturer's protocol. The transfected cells were cultured for 7 days, and the number of colonies was counted by Giemsa staining, and viability of cells was evaluated by 3-(4,5-dimethylthiazol-2-yl)-2,5-diphenyltetrazolium bromide (MTT) assay (cell counting kit-8 solution; Dojindo Laboratories), at 7 days after transfection. […]
as §2, with “duplexes” for “duplexes (Dharmacon, Inc.)”, “LC319,” for “esophageal cancer cell line, TE9,”, “24 microL” for “24”

[3] = system: LC319 and A549 cell lines; test: MTT assay of lung cancer cells transfected with siRNAs against TBC1D7; type: cell-based, human; details: 7 days after transfection, siRNA 100 nM
Description: as §2, with “transfection. To confirm suppression of TBC1D7 expression, semiquantitative RT-PCR was carried out with synthesized primers specific for TBC1D7 described above. SiRNA duplexes against human TBC1D7, si-TBC1D7-#1: siGenome duplexes 1 [D-021140-01: […]] (SEQ ID NO: 3 for target sequence SEQ ID NO.: 18) and si-TBC1D7-#2: siGenome duplexes 4 [D-021140-4: […]]” for “transfection.”
as §2, with “duplexes” for “duplexes (Dharmacon, Inc.)”, “LC319,” for “esophageal cancer cell line, TE9,”, “24 microL” for “24”

[4] = system: LC319 and A549 cell lines; test: Colony formation assay (Giemsa staining) of lung cancer cells transfected with siRNAs against TBC1D7; type: cell-based, human; details: cultured 7 days after transfection, siRNA 100 nM
Description: as §2, with “transfection. To confirm suppression of TBC1D7 expression, semiquantitative RT-PCR was carried out with synthesized primers specific for TBC1D7 described above. SiRNA duplexes against human TBC1D7, si-TBC1D7-#1: siGenome duplexes 1 [D-021140-01: […]] (SEQ ID NO: 3 for target sequence SEQ ID NO.: 18) and si-TBC1D7-#2: siGenome duplexes 4 [D-021140-4: […]]” for “transfection.”
as §2, with “duplexes” for “duplexes (Dharmacon, Inc.)”, “LC319,” for “esophageal cancer cell line, TE9,”, “24 microL” for “24”

lung cancer LC319 cells [5] = test: Flow cytometric cell cycle analysis after si-TBC1D7 transfection; type: cell-based, human; details: 48 to 96 hours after transfection
Description: Cells were collected in PBS, and fixed in 70% cold ethanol for 30 minutes. After treatment with 100 micro g/mL RNase (Sigma/Aldrich, St. Louis, Mo.), the cells were stained with 50 micro g/mL propidium iodide (Sigma/Aldrich, St. Louis, Mo.) in PBS. Flow cytometry was done on a Becton Dickinson FACScan and analyzed by ModFit software (Verity Software House, Inc., Topsham, Me.). The cells selected from at least 10,000 ungated cells were analyzed for DNA content.

[6] = target: T1, endogenous TSC1 protein (human, lung cancer LC319 cells) (human, UniProt Q92574 1-1164, limits assumed); test: summary of the immunoprecipitation results in the discussion
T1 construct: Endogenous protein in LC319 cell extracts
T1 sequence: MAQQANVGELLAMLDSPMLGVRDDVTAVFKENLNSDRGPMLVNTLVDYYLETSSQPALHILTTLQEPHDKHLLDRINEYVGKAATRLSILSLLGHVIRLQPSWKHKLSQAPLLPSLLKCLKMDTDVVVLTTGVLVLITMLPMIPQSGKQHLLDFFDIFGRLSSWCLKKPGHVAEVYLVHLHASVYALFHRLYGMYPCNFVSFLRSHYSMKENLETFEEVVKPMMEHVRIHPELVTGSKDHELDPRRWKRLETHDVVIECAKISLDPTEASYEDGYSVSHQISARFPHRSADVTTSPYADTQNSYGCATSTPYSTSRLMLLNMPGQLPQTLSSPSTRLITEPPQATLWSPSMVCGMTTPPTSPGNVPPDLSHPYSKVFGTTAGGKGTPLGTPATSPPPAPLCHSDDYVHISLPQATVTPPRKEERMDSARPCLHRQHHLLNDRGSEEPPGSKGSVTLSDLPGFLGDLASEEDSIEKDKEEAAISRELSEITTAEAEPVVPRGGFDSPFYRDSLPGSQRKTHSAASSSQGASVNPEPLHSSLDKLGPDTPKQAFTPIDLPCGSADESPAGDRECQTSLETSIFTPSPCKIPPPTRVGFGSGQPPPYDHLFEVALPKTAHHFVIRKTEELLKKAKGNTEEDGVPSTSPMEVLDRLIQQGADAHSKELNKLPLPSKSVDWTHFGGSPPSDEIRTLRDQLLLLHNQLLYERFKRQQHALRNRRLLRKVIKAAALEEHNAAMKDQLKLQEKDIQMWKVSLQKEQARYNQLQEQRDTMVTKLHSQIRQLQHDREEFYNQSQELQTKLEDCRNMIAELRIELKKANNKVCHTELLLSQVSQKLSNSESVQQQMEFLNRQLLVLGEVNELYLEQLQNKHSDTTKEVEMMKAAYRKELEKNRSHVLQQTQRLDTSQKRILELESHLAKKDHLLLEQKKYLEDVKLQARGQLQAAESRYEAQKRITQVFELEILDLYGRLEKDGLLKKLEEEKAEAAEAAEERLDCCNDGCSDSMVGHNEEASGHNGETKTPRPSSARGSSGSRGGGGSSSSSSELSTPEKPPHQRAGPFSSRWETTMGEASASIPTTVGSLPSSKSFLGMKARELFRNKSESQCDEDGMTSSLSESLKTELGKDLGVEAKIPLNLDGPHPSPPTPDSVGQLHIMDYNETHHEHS

[7] = target: T1, endogenous TSC1 protein (human, lung …); test: immunoprecipitation experiments using LC319 cells, as the legend of FIG. 5A says
Text: FIG. 5 depicts identification of TSC1-interacting region in TBC1D7 and inhibition of growth of lung cancer cells by dominant-negative peptides of TBC1D7. A, Left panel, Schematic drawing of six N-terminal Flag-tagged TBC1D7 partial protein constructs lacking either or both of the terminal regions. Right panels, Identification of the region in TBC1D7 that binds to TSC1 by immunoprecipitation experiments using LC319 cells. The TBC1D7₁₁₂₋₁₇₁ construct, which corresponds to a center region in TBC domain, was indicated to be TSC1-interacting region. B, Left top panel, Schematic drawing of three cell permeable peptides of TBC1D7 covering TBC1D7₁₁₂₋₁₇₁ that corresponds to the TSC1-interacting region in TBC1D7. B, Right top panels, Reduction of the complex formation between endogenous TSC1 and endogenous TBC1D7 proteins, detected by immunoprecipitation assay in LC319 cells that were treated with the 11R-TBC₁₅₂₋₁₇₁ peptides. C, MTT assay showing growth suppressive effect of 11R-TBC₁₅₂₋₁₇₁ peptides that were introduced into LC319 cells that expressed both TBC1D7 and TSC1 proteins. Bars, SD of triplicate assays. D, Left panels, Expressions of TBC1D7 and TSC1 proteins in lung cancer cell line LC319 and normal human lung fibroblast-derived CCD19Lu cells, examined by western blot analysis. […]

RRRRRRRRRRR-GGG-EVFLAIAKAMEEMVEDSVDC (RRRRRRRRRRRGGGEVFLAIAKAMEEMVEDSVDC; a dominant-negative peptide) [11R-TBC1D7132-151]
cell viability / cell growth, MTT assay (lung cancer LC319 cells [1]): no effect on cell growth

RRRRRRRRRRR-GGG-YQLESGKLPRSPSFPLEPDD (RRRRRRRRRRRGGGYQLESGKLPRSPSFPLEPDD; a dominant-negative peptide) [11R-TBC1D7112-131]
cell viability / cell growth, MTT assay (lung cancer LC319 cells [1]): no effect on cell growth

RRRRRRRRRRRGGGYWITRRFVNQLNTKYRDSLP [11R-TBC1D7152-171]
cell viability of normal cells (off-target toxic effect), MTT assay [2]: no effect on cell viability
cell viability of normal cells (off-target toxic effect), MTT assay ([2]; listed as 11R-TBC152-171): no off-target effect

si-TBC1D7-#1: siRNA duplex against human TBC1D7, GAACAGUGCAGAGAAGAUAUU (SEQ ID NO: 3, target SEQ ID NO: 18), purchased from Dharmacon (chemistry not given here)
knockdown effect on TBC1D7 expression (RT-PCR) (TBC1D7): knockdown effect was confirmed
number / viability of cells, MTT assay (cell growth) [3]: drastic reduction in the number of cells
number of cells / colonies, colony-formation assay [4]: drastic reduction in the number of cells
number of cells in S phase (lung cancer LC319 cells [5]): continuously decreased
proportion of the cells in G2/M phase (lung cancer LC319 cells [5]): increased

si-TBC1D7-#2: siRNA duplex against human TBC1D7, GAUAAAGUUGUGAGUGGAUUU (SEQ ID NO: 4, target SEQ ID NO: 19), purchased from Dharmacon (chemistry not given here)
knockdown effect on TBC1D7 expression (RT-PCR) (TBC1D7): knockdown effect was confirmed
number / viability of cells, MTT assay (cell growth) [3]: drastic reduction in the number of cells
number of cells / colonies, colony-formation assay [4]: drastic reduction in the number of cells

B1: endogenous TBC1D7 protein (human, lung cancer LC319 cells) (other)
chain: MTEDSQRNFRSVYYEKVGFRGVEEKKSLEILLKDDRLDTEKLCTFSQRFPLPSMYRALVWKVLLGILPPHHESHAKVMMYRKEQYLDVLHALKVVRFVSDATPQAEVYLRMYQLESGKLPRSPSFPLEPDDEVFLAIAKAMEEMVEDSVDCYWITRRFVNQLNTKYRDSLPQLPKAFEQYLNLEDGRLLTHLRMCSAAPKLPYDLWFKRCFAGCLPESSLQRVWDKVVSGSCKILVFVAVEILLTFKIKVMALNSAEKITKFLENIPQDSSDAIVSKAIDLWHKHCGTPVHSS
notes: Endogenous protein in cell extracts; also called TBC1 domain family, member 7
binding result [6]: binds

B2: TBC112-171, N-terminal Flag-tagged TBC1D7 partial protein construct (other, not shown: small tags and cut ends)
chain: YQLESGKLPRSPSFPLEPDDEVFLAIAKAMEEMVEDSVDCYWITRRFVNQLNTKYRDSLP
binding result [7]: binds

Reference: patent US20120010266A1, “TBC1D7 AS TUMOR MARKER AND THERAPEUTIC TARGET FOR CANCER” (Oncotherapy Science Inc.,, priority 2008, published 2012)
